Experiments:
[1] = molecular target: T1, Muscarinic acetylcholine receptor M1 (Homo sapiens, UniProt P11229); assay: Agonist activity at human muscarinic M1 receptor expressed in CHO cells assessed as effect on acetylcholine-induced intracellular calcium level by FLIPR assay; type: functional, cell-based
T1 sequence (P11229 whole entry): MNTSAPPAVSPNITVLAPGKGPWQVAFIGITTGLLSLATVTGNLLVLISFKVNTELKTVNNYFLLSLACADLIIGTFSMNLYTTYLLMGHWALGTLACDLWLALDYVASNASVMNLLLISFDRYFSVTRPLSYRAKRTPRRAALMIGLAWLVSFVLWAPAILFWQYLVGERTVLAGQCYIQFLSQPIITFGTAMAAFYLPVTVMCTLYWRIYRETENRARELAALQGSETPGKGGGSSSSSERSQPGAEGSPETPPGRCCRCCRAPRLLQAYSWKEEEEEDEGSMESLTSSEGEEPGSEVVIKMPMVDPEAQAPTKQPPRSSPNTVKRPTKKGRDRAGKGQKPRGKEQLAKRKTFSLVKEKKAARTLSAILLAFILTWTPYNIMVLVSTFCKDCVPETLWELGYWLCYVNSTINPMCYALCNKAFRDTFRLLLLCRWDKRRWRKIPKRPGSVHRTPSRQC

[2] = molecular target: T2, Muscarinic acetylcholine receptor M1 (Homo sapiens) (UniProt P11229); assay: Intrinsic activity at human muscarinic M1 receptor expressed in CHO cells assessed as effect on acetylcholine-induced intracellular calcium level by FLIPR assay relative to acetylcholine; type: functional, cell-based
T2 sequence (whole entry): T1 sequence (P11229 whole entry)

SMILES	EC50 [1] [µM]	Intrinsic activity [2] [%]
Cc1cc(Cl)cc(-c2ccccc2C(=O)NCC2CCNCC2)c1	1.58	52
O=C(NCC1CCCNC1)c1ccccc1-c1nc(Cl)cs1 (centres undefined)	> 10	
Cc1ccc(-c2ccccc2C(=O)NCC2CCNCC2)cc1	> 10	
N#Cc1cccc(-c2ccccc2C(=O)NCC2CCNCC2)c1	> 10	
Cc1cccc(-c2ccccc2C(=O)NCC2CCNCC2)c1	> 10	
CN(C)C(=O)c1cccc(-c2ccccc2C(=O)NCC2CCNCC2)c1	> 10	
Cc1c(Cl)cccc1-c1ccccc1C(=O)NCC1CCNCC1	> 10	5
O=C(NCC1CCN2CCCC1C2)c1ccccc1-c1cccc(Cl)c1 (centres undefined)	> 10	
O=C(NCC1CCNCC1)c1ccccc1-c1ccco1	> 10	
CC1(C)CNCCC1CNC(=O)c1cc(Cl)ccc1-c1cccc(Cl)c1 (centres undefined)	> 10	
O=C(NCC12CCN(CC1)C2)c1ccccc1-c1cccc(Cl)c1	> 10	
O=C(NCC1CCNCC1)c1ccccc1-c1cccc(C(F)(F)F)c1	> 10	
CN(C)c1cccc(-c2ccccc2C(=O)NCC2CCNCC2)c1	> 10	
O=C(NCC12CCN(CC1)CC2)c1ccccc1-c1nc(Cl)cs1	0.251	63
O=C(NCC1CCNCC1)c1ccccc1-c1cccc(Cl)c1F	1	66
O=C(NCC1CCNCC1)c1ccccc1-c1cccc(OC(F)(F)F)c1	> 10	
CC1(CNC(=O)c2ccccc2-c2cccc(Cl)c2)CCNCC1	> 10	45
O=C(NCC1CCNCC1)c1ccccc1-c1ccncc1	> 10	
O=C(NCC1CCNCC1)c1ccccc1-c1ccsc1	> 10	
O=C(NCc1ccncc1)c1ccccc1-c1nc(Cl)cs1	> 10	
O=C(NCC1CCNC1)c1ccccc1-c1nc(Cl)cs1 (centres undefined)	> 10	

SMILES	EC50 [1] [µM]	Intrinsic activity [2] [%]
CN(CC1CCNCC1)C(=O)c1ccccc1-c1cccc(Cl)c1	> 10	2
COc1cccc(-c2ccccc2C(=O)NCC2CCNCC2)c1	> 10	
Cc1ccc(Cl)cc1-c1ccccc1C(=O)NCC1CCNCC1	0.158	86
CC(=O)c1cccc(-c2ccccc2C(=O)NCC2CCNCC2)c1	> 10	
O=C(NCC1CCNCC1)c1ccccc1-c1ccc(Cl)s1	> 10	
O=C(NCC1CCNCC1)c1ccccc1-c1cccnc1	> 10	
O=C(NCC1CCNCC1)c1ccccc1-c1ccccc1Cl	> 10	
CC(NC(=O)c1ccccc1-c1cccc(Cl)c1)C1CCNCC1 (centres undefined)	> 10	26
COCc1cccc(-c2ccccc2C(=O)NCC2CCNCC2)c1	> 10	
O=C(NC1CCNC1)c1ccccc1-c1nc(Cl)cs1 (centres undefined)	> 10	
O=C(NCC1CNCCO1)c1ccccc1-c1nc(Cl)cs1 (centres undefined)	> 10	
O=C(NCC1CCNCC1)c1ccccc1-c1ccc(C(F)(F)F)cc1	> 10	
O=C(NCC1CCOCC1)c1ccccc1-c1nc(Cl)cs1	> 10	
O=C(NCC1CCNCC1)c1ccccc1-c1ccc2ccccc2c1	> 10	
O=C(NC1CCCNC1)c1ccccc1-c1nc(Cl)cs1 (centres undefined)	> 10	
O=C(NCC12CCN(CC1)CC2)c1ccccc1-c1cccc(Cl)c1	> 10	
N[C@H]1CC[C@H](CNC(=O)c2ccccc2-c2cccc(Cl)c2)CC1	> 10	
O=C(NCC1CCCN1)c1ccccc1-c1nc(Cl)cs1 (centres undefined)	> 10	
O=C(NCC1CCNCC1)c1ccccc1-c1ccc(F)cc1	> 10	
O=C(NC[C@H]1C[C@H]2CC[C@@H](C1)N2)c1ccccc1-c1cccc(Cl)c1	> 10	
O=C(NCC1CCNCC1)c1ccccc1-c1cccc(Cl)c1Cl	> 10	16

SMILES	EC50 [1] [µM]	Intrinsic activity [2] [%]
CN1CCC(CNC(=O)c2ccccc2-c2cccc(Cl)c2)CC1	> 10	16
CS(=O)(=O)c1cccc(-c2ccccc2C(=O)NCC2CCNCC2)c1	> 10	
O=C(NCC1CCNCC1)c1ccccc1-c1cccc2ccccc12	> 10	
O=C(NCC1CCNCC1)c1ccccc1-c1ccc(Cl)c(Cl)c1	0.0501	59
O=C(NCC1CCNCC1)c1ccccc1-c1cc(Cl)ccc1Cl	0.0398	100
O=C(NCC1CCNCC1)c1ccccc1-c1cc(Cl)cc(Cl)c1	> 10	24
CC(=O)Nc1cccc(-c2ccccc2C(=O)NCC2CCNCC2)c1	> 10	
O=C(NC1CCCCNC1)c1ccccc1-c1nc(Cl)cs1 (centres undefined)	> 10	
NC(=O)c1cccc(-c2ccccc2C(=O)NCC2CCNCC2)c1	> 10	
COc1ccccc1-c1ccccc1C(=O)NCC1CCNCC1	> 10	
O=C(NC1CCNCC1)c1ccccc1-c1nc(Cl)cs1	> 10	
O=C(NCC1CCNCC1)c1ccccc1-c1cccs1	> 10	
O=C(NCC1CCNCC1)c1ccccc1-c1cccc(-c2ccccc2)c1	> 10	
O=C(NCC1CCNCC1)c1ccccc1-c1ccc(F)c(Cl)c1	0.0251	76
O=C(NCC1CCNCC1)c1ccccc1-c1cccc(F)c1	> 10	
O=C(O)c1cccc(-c2ccccc2C(=O)NCC2CCNCC2)c1	> 10	
CC1CC(CNC(=O)c2ccccc2-c2cccc(Cl)c2)CCN1 (centres undefined)	> 10	28
NS(=O)(=O)c1cccc(-c2ccccc2C(=O)NCC2CCNCC2)c1	> 10	
COc1ccc(-c2ccccc2C(=O)NCC2CCNCC2)cc1	> 10	
O=C(NCC1CCNCC1)c1ccccc1-c1nccs1	> 10	
O=C(NCC1CCNCC1)c1ccccc1-c1cc(F)cc(Cl)c1	> 10	17
